Patent US10689383B2, “Optionally fused heterocyclyl-substituted derivatives of pyrimidine useful for the treatment of inflammatory, metabolic, oncologic and autoimmune diseases” (NUEVOLUTION A/S, priority 2014, dated 2020)

What was measured:
[1] = target: T1, human RORγt (Ligand Binding Domain) (Homo sapiens, UniProt P51449); assay: Fluorescence Polarization (FP) Assay; conditions: Fluorescence Polarization (FP) Assay; values given as upper bounds of activity ranges; read-out: FP activity range
T1 construct: purchased Crelux (Planegg, Germany) batch no PC5032-1
T1 sequence (P51449 269-508 limits assumed): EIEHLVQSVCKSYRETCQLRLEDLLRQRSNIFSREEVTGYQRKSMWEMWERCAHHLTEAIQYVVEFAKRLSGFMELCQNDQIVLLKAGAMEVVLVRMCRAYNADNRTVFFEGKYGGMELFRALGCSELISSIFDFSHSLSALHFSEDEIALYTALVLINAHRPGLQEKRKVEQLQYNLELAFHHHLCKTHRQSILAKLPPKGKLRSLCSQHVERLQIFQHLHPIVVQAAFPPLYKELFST
How it was run: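 In vitro FP binding assay monitoring ligand binding within the ligand binding pocket. Probe is a TAMRA-labelled RORγt ligand (MW 910 g/mole); DMSO served as negative control.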

[2] = target: T2, yeast Gal4-DNA binding domain fused to the ligand binding domain of human RORγ (Homo sapiens, UniProt P51449); assay: RORγ Reporter Assay (Gal4); format: cell-based; conditions: values given as lower bounds of ranges; for Gal4 activity range @ 0.1 μM (% inhibition): RORγ Reporter Assay (Gal4) at 0.1 μM; for Gal4 activity range @ 1 μM (% inhibition): RORγ Reporter Assay (Gal4) at 1 μM
T2 construct: host or cells: HEK293t
T2 sequence (P51449 269-508 limits assumed): T1 sequence (P51449 269-508 limits assumed)
How it was run: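 HEK293t reporter cells expressing the hybrid, with Gal4-UAS-driven firefly luciferase, treated in triplicate with compound at 1,000 nM and 100 nM (0.1% DMSO) in medium with 10% charcoal-stripped FBS for 24 h at 37 °C. Luminescence read; percent reduction of RLU calculated relative to vehicle.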

NC(=O)CC1CCC(CNc2ncnc(N3CCOC[C@@H]3c3ccc(C(F)(F)F)cc3)c2F)CC1 (stereo partly drawn) [Example 206, 2-[4-[[[5-fluoro-6-[(3S)-3-[4-(trifluoromethyl)phenyl]morpholin-4-yl]pyrimidin-4-yl]amino]methyl]cyclohexyl] acetamide]
IC50 [1]: < 1000 nM | Gal4 activity range @ 0.1 μM (% inhibition) [2]: >20 % inhibition | Gal4 activity range @ 1 μM (% inhibition) [2]: >80 % inhibition

O=C(O)Cc1ccc(CNc2ncnc(N3CCC[C@@H]3c3ccc(C(F)(F)F)cc3)c2F)s1 [Example 207, 2-[5-[[[5-fluoro-6-[(2R)-2-[4-(trifluoromethyl)phenyl]pyrrolidin-1-yl]pyrimidin-4-yl]amino]methyl]-2-thienyl]acetic acid]
IC50 [1]: < 500 nM | Gal4 activity range @ 0.1 μM (% inhibition) [2]: >20 % inhibition | Gal4 activity range @ 1 μM (% inhibition) [2]: >80 % inhibition

Fc1c(NCC2CCOCC2)ncnc1N1CCC[C@@H]1c1ccc(C(F)(F)F)cc1 [Example 208, 5-fluoro-N-(tetrahydropyran-4-ylmethyl)-6-[(2R)-2-[4-(trifluoromethyl)phenyl]pyrrolidin-1-yl]pyrimidin-4-amine]
IC50 [1]: < 500 nM | Gal4 activity range @ 0.1 μM (% inhibition) [2]: >50 % inhibition | Gal4 activity range @ 1 μM (% inhibition) [2]: >80 % inhibition

Cc1ccc(CNc2ncnc(N3CCCC3(C)c3ccc(C(F)(F)F)cc3)c2F)cn1 (centres unmarked) [Example 209, 5-fluoro-N-[(6-methyl-3-pyridyl)methyl]-6-[2-methyl-2-[4-(trifluoromethyl)phenyl]pyrrolidin-1-yl]pyrimidin-4-amine]
IC50 [1]: < 1000 nM | Gal4 activity range @ 0.1 μM (% inhibition) [2]: >20 % inhibition | Gal4 activity range @ 1 μM (% inhibition) [2]: >50 % inhibition

Cc1ccc(CNc2ncnc(N3CCC[C@@H]3c3ccc(C(F)(F)F)cc3F)c2F)cn1 [Example 210, 5-fluoro-6-[(2R)-2-[2-fluoro-4-(trifluoromethyl)phenyl]pyrrolidin-1-yl]-N-[(6-methyl-3-pyridyl)methyl]pyrimidin-4-amine]
IC50 [1]: < 1000 nM | Gal4 activity range @ 0.1 μM (% inhibition) [2]: >50 % inhibition | Gal4 activity range @ 1 μM (% inhibition) [2]: >80 % inhibition

Cc1ccc(CNc2ncnc(N3CC(C)CC3c3ccc(C(F)(F)F)cc3)c2F)cn1 (centres unmarked) [Example 211, 5-fluoro-N-[(6-methyl-3-pyridyl)methyl]-6-[4-methyl-2-[4-(trifluoromethyl)phenyl]pyrrolidin-1-yl]pyrimidin-4-amine]
IC50 [1]: < 1000 nM | Gal4 activity range @ 0.1 μM (% inhibition) [2]: >0 % inhibition | Gal4 activity range @ 1 μM (% inhibition) [2]: >50 % inhibition

OC1(CNc2ncnc(N3CCC[C@@H]3c3ccc(C(F)(F)F)cc3)c2F)CCOC1 (stereo partly drawn) [Example 220, 3-[[[5-fluoro-6-[(2R)-2-[4-(trifluoromethyl)phenyl]pyrrolidin-1-yl]pyrimidin-4-yl]amino]methyl]tetrahydrofuran-3-ol]
IC50 [1]: < 500 nM | Gal4 activity range @ 0.1 μM (% inhibition) [2]: >20 % inhibition | Gal4 activity range @ 1 μM (% inhibition) [2]: >80 % inhibition

OCCC1(CNc2ncnc(N3CCC[C@@H]3c3ccc(C(F)(F)F)cc3)c2F)CCOCC1 [Example 221, 2-[4-[[[5-fluoro-6-[(2R)-2-[4-(trifluoromethyl)phenyl]pyrrolidin-1-yl]pyrimidin-4-yl]amino]methyl]tetrahydropyran-4-yl]ethanol]
IC50 [1]: < 500 nM | Gal4 activity range @ 0.1 μM (% inhibition) [2]: >50 % inhibition | Gal4 activity range @ 1 μM (% inhibition) [2]: >80 % inhibition

O=S1(=O)CCC(CNc2ncnc(N3CCC[C@@H]3c3ccc(C(F)(F)F)cc3)c2F)CC1 [Example 222, N-[(1,1-dioxothian-4-yl)methyl]-5-fluoro-6-[(2R)-2-[4-(trifluoromethyl)phenyl]pyrrolidin-1-yl]pyrimidin-4-amine]
IC50 [1]: < 2000 nM | Gal4 activity range @ 0.1 μM (% inhibition) [2]: >20 % inhibition | Gal4 activity range @ 1 μM (% inhibition) [2]: >80 % inhibition

O=S1(=O)CCC(O)(CNc2ncnc(N3CCC[C@@H]3c3ccc(C(F)(F)F)cc3)c2F)CC1 [Example 223, 4-[[[5-fluoro-6-[(2R)-2-[4-(trifluoromethyl)phenyl]pyrrolidin-1-yl]pyrimidin-4-yl]amino]methyl]-1,1-dioxo-thian-4-ol]
IC50 [1]: < 500 nM | Gal4 activity range @ 0.1 μM (% inhibition) [2]: >50 % inhibition | Gal4 activity range @ 1 μM (% inhibition) [2]: >80 % inhibition

O=S(=O)(NC1CC1)c1ccc(CNc2ncnc(N3CCC[C@@H]3c3ccc(C(F)(F)F)cc3)c2F)cc1 [Example 224, N-cyclopropyl-4-[[[5-fluoro-6-[(2R)-2-[4-(trifluoromethyl)phenyl]pyrrolidin-1-yl]pyrimidin-4-yl]amino]methyl]benzenesulfonamide]
IC50 [1]: < 500 nM | Gal4 activity range @ 0.1 μM (% inhibition) [2]: >80 % inhibition | Gal4 activity range @ 1 μM (% inhibition) [2]: >80 % inhibition

OCC1CCC(CNc2ncnc(N3CCC[C@@H]3c3ccc(C(F)(F)F)cc3)c2F)CC1 (stereo partly drawn) [Example 225, [4-[[[5-fluoro-6-[(2R)-2-[4-(trifluoromethyl)phenyl]pyrrolidin-1-yl]pyrimidin-4-yl]amino]methyl]cyclohexyl] methanol]
IC50 [1]: < 500 nM | Gal4 activity range @ 0.1 μM (% inhibition) [2]: >80 % inhibition | Gal4 activity range @ 1 μM (% inhibition) [2]: >80 % inhibition

NC(=O)c1ccc(CNc2ncnc(N3CCC[C@@H]3c3ccc(C(F)(F)F)cc3)c2F)cc1 [Example 226, 4-[[[5-fluoro-6-[(2R)-2-[4-(trifluoromethyl)phenyl]pyrrolidin-1-yl]pyrimidin-4-yl]amino]methyl]benzamide]
IC50 [1]: < 10000 nM | Gal4 activity range @ 1 μM (% inhibition) [2]: >50 % inhibition

OCc1ccc(CNc2ncnc(N3CCC[C@@H]3c3ccc(C(F)(F)F)cc3)c2F)cc1 [Example 227, [4-[[[5-fluoro-6-[(2R)-2-[4-(trifluoromethyl)phenyl]pyrrolidin-1-yl]pyrimidin-4-yl]amino]methyl]phenyl]methanol]
IC50 [1]: < 500 nM | Gal4 activity range @ 0.1 μM (% inhibition) [2]: >80 % inhibition | Gal4 activity range @ 1 μM (% inhibition) [2]: >80 % inhibition

OCC1(CNc2ncnc(N3CCC[C@@H]3c3ccc(C(F)(F)F)cc3)c2F)COC1 [Example 228, [3-[[[5-fluoro-6-[(2R)-2-[4-(trifluoromethyl)phenyl]pyrrolidin-1-yl]pyrimidin-4-yl]amino]methyl]oxetan-3-yl]methano1]
IC50 [1]: < 500 nM | Gal4 activity range @ 0.1 μM (% inhibition) [2]: >20 % inhibition | Gal4 activity range @ 1 μM (% inhibition) [2]: >80 % inhibition

CC1(c2ccc(C(F)(F)F)cc2)CCCN1c1ncnc(NCc2ccc(CC(N)=O)cc2)c1F (centres unmarked) [Example 229, 2-[4-[[[5-fluoro-6-[2-methyl-2-[4-(trifluoromethyl)phenyl]pyrrolidin-1-yl]pyrimidin-4-yl]amino]methyl]phenyl]acetamide]
IC50 [1]: < 500 nM | Gal4 activity range @ 0.1 μM (% inhibition) [2]: >50 % inhibition | Gal4 activity range @ 1 μM (% inhibition) [2]: >80 % inhibition

NC(=O)Cc1ccc(CNc2ncnc(N3CCOC[C@@H]3c3ccc(OC(F)(F)F)cc3)c2F)cc1 [Example 230, 2-[4-[[[5-fluoro-6-[(3S)-3-[4-(trifluoromethoxy)phenyl]morpholin-4-yl]pyrimidin-4-yl]amino]methyl]phenyl]acetamide]
IC50 [1]: < 500 nM | Gal4 activity range @ 0.1 μM (% inhibition) [2]: >50 % inhibition | Gal4 activity range @ 1 μM (% inhibition) [2]: >80 % inhibition

NC(=O)Cc1ccc(CNc2ncnc(N3CC(F)(F)CC3c3ccc(C(F)(F)F)cc3)c2F)cc1 (centres unmarked) [Example 231, 2-[4-[[[6-[4,4-difluoro-2-[4-(trifluoromethyl)phenyl]pyrrolidin-1-yl]-5-fluoro-pyrimidin-4-yl]amino]methyl]phenyl]acetamide]
IC50 [1]: < 500 nM | Gal4 activity range @ 0.1 μM (% inhibition) [2]: >50 % inhibition | Gal4 activity range @ 1 μM (% inhibition) [2]: >80 % inhibition

NC(=O)Cc1ccc(CNc2ncnc(N3CCC[C@@H]3c3ccc(C(F)(F)F)cc3F)c2F)cc1 [Example 232, 2-[4-[[[5-fluoro-6-[(2R)-2-[2-fluoro-4-(trifluoromethyl)phenyl]pyrrolidin-1-yl]pyrimidin-4-yl]amino]methyl]phenyl]acetamide]
IC50 [1]: < 500 nM | Gal4 activity range @ 0.1 μM (% inhibition) [2]: >50 % inhibition | Gal4 activity range @ 1 μM (% inhibition) [2]: >80 % inhibition

CC(=O)N1CCC(CNc2ncnc(N3CCOC[C@@H]3c3ccc(C(F)(F)F)cc3)c2F)CC1 [Example 233, 1-[4-[[[5-fluoro-6-[(3S)-3-[4-(trifluoromethyl)phenyl]morpholin-4-yl]pyrimidin-4-yl]amino]methyl]-1-piperidyl]ethanone]
IC50 [1]: < 500 nM | Gal4 activity range @ 0.1 μM (% inhibition) [2]: >20 % inhibition | Gal4 activity range @ 1 μM (% inhibition) [2]: >80 % inhibition

O=S1(=O)CCC(O)(CNc2ncnc(N3CCOC[C@@H]3c3ccc(C(F)(F)F)cc3)c2F)CC1 [Example 234, 4-[[[5-fluoro-6-[(3S)-3-[4-(trifluoromethyl)phenyl]morpholin-4-yl]pyrimidin-4-yl]amino]methyl]-1,1-dioxo-thian-4-ol]
IC50 [1]: < 1000 nM | Gal4 activity range @ 0.1 μM (% inhibition) [2]: >0 % inhibition | Gal4 activity range @ 1 μM (% inhibition) [2]: >50 % inhibition

CC1(CNc2ncnc(N3CCOC[C@@H]3c3ccc(C(F)(F)F)cc3)c2F)COC1 [Example 235, 5-fluoro-N-[(3-methyloxetan-3-yl)methyl]-6-[(3S)-3-[4-(trifluoromethyl)phenyl]morpholin-4-yl]pyrimidin-4-amine]
IC50 [1]: < 2000 nM | Gal4 activity range @ 0.1 μM (% inhibition) [2]: >0 % inhibition | Gal4 activity range @ 1 μM (% inhibition) [2]: >50 % inhibition
